Source: ChEMBL document CHEMBL1201862, “PubChem BioAssay data set” (2004)
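Five compound concentrations were applied to cells in 96-well plates for 48 hours; endpoints were derived by simple linear interpolation of the resulting dose-response curve. Here, GI50 denotes the concentration required for 50% inhibition of growth.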 Active and inactive are the calls of the source. Rule as the data show it: active = GI50 up to about 1.1 µM and inactive = higher.

Legend:
Experiment in all cases: DTP human tumour cell line panel, 48 h
[1] = system: SK-MEL-5
[2] = system: RPMI-8226
[3] = system: HCT-15
[4] = system: KM12
[5] = system: 786-0
[6] = system: DU-145
[7] = system: MDA-MB-435
[8] = system: HCT-116
[9] = system: UACC-62
[10] = system: HT-29
[11] = system: OVCAR-8
[12] = system: Hs-578T
[13] = system: HOP-92
[14] = system: CAKI-1
[15] = system: CCRF-CEM
[16] = system: ACHN
[17] = system: SN12C
[18] = system: A498
[19] = system: RXF 393
[20] = system: SF-268
[21] = system: SK-OV-3
[22] = system: MCF7
[23] = system: COLO 205
[24] = system: SNB-19
[25] = system: U-251
[26] = system: MOLT-4
[27] = system: SNB-75
[28] = system: UO-31
[29] = system: HL-60
[30] = system: BT-549
[31] = system: UACC-257
[32] = system: LOX IMVI
[33] = system: MDA-N
[34] = system: T47D
[35] = system: MDA-MB-231
[36] = system: IGROV-1
[37] = system: SK-MEL-28
[38] = system: EKVX
[39] = system: SW-620
[40] = system: TK-10
[41] = system: NCI-H23
[42] = system: OVCAR-3
[43] = system: PC-3
[44] = system: A549
[45] = system: SR
[46] = system: NCI-H522
[47] = system: NCI-H226
[48] = system: OVCAR-4
[49] = system: HOP-62
[50] = system: SK-MEL-2
[51] = system: NCI/ADR-RES
[52] = system: OVCAR-5
[53] = system: HCC 2998
[54] = system: NCI-H460
[55] = system: K562
[56] = system: M14
[57] = system: SF-295
[58] = system: SF-539

Q: `CNc1nncc2[nH]cnc12` was tested. Which GI50 [1] did it give?
A: Its GI50 is > 100 µM (inactive).

Q: And the GI50 [2]?
A: Its GI50 is > 100 µM (inactive).

Q: What about the GI50 [3] of the same molecule?
A: The GI50 was over 100 µM.

Q: And the GI50 [4]?
A: The GI50 was > 100 µM (inactive).

Q: What about the GI50 [5] of the same molecule?
A: The GI50 was > 100 µM (inactive).

Q: And the GI50 [6]?
A: The GI50 was > 100 µM (inactive).

Q: And the GI50 [7]?
A: Its GI50 is > 100 µM (inactive).

Q: What about the GI50 [8] of the same molecule?
A: The GI50 was > 100 µM (inactive).

Q: And the GI50 [9]?
A: The GI50 was > 100 µM (inactive).

Q: And the GI50 [10]?
A: Its GI50 is > 100 µM (inactive).

Q: And the GI50 [11]?
A: Its GI50 is > 100 µM (inactive).

Q: And the GI50 [12]?
A: Its GI50 is > 100 µM (inactive).

Q: And the GI50 [13]?
A: Its GI50 is > 100 µM (inactive).

Q: What about the GI50 [14] of the same molecule?
A: Its GI50 is > 100 µM (inactive).

Q: What about the GI50 [15] of the same molecule?
A: Its GI50 is > 100 µM (inactive).

Q: What about the GI50 [16] of the same molecule?
A: Its GI50 is > 100 µM (inactive).

Q: What about the GI50 [17] of the same molecule?
A: The GI50 was > 100 µM (inactive).

Q: And the GI50 [18]?
A: Its GI50 is > 100 µM (inactive).

Q: And the GI50 [19]?
A: The GI50 was > 100 µM (inactive).

Q: What about the GI50 [20] of the same molecule?
A: Its GI50 is > 100 µM (inactive).

Q: And the GI50 [21]?
A: Its GI50 is > 100 µM (inactive).

Q: And the GI50 [22]?
A: The GI50 was > 100 µM (inactive).

Q: What about the GI50 [23] of the same molecule?
A: Its GI50 is > 100 µM (inactive).

Q: What about the GI50 [24] of the same molecule?
A: Its GI50 is > 100 µM (inactive).

Q: And the GI50 [25]?
A: Its GI50 is > 100 µM (inactive).

Q: And the GI50 [26]?
A: Its GI50 is > 100 µM (inactive).

Q: And the GI50 [27]?
A: The GI50 was > 100 µM (inactive).

Q: What about the GI50 [28] of the same molecule?
A: The GI50 was > 100 µM (inactive).

Q: And the GI50 [29]?
A: The GI50 was 32.4 µM (inactive).

Q: And the GI50 [30]?
A: Its GI50 is > 100 µM (inactive).

Q: And the GI50 [31]?
A: The GI50 was > 100 µM (inactive).

Q: And the GI50 [32]?
A: The GI50 was > 100 µM (inactive).

Q: And the GI50 [33]?
A: Its GI50 is > 100 µM (inactive).

Q: What about the GI50 [34] of the same molecule?
A: The GI50 was > 100 µM (inactive).

Q: What about the GI50 [35] of the same molecule?
A: Its GI50 is > 100 µM (inactive).

Q: And the GI50 [36]?
A: Its GI50 is > 100 µM (inactive).

Q: And the GI50 [37]?
A: The GI50 was > 100 µM (inactive).

Q: What about the GI50 [38] of the same molecule?
A: Its GI50 is > 100 µM (inactive).

Q: And the GI50 [39]?
A: Its GI50 is > 100 µM (inactive).

Q: What about the GI50 [40] of the same molecule?
A: The GI50 was > 100 µM (inactive).

Q: `Cn1c2ccccc2n2c3ccccc3c(=S)c(C#N)c12` was tested. Which GI50 [41] did it give?
A: The GI50 was > 100 µM (inactive).

Q: What about the GI50 [1] of the same molecule?
A: The GI50 was > 100 µM (inactive).

Q: What about the GI50 [42] of the same molecule?
A: Its GI50 is > 100 µM (inactive).

Q: And the GI50 [43]?
A: The GI50 was > 100 µM (inactive).

Q: What about the GI50 [2] of the same molecule?
A: Its GI50 is > 100 µM (inactive).

Q: And the GI50 [44]?
A: The GI50 was > 100 µM (inactive).

Q: What about the GI50 [45] of the same molecule?
A: The GI50 was > 100 µM (inactive).

Q: And the GI50 [3]?
A: Its GI50 is over 100 µM.

Q: What about the GI50 [46] of the same molecule?
A: The GI50 was > 100 µM (inactive).

Q: What about the GI50 [4] of the same molecule?
A: The GI50 was > 100 µM (inactive).

Q: And the GI50 [5]?
A: The GI50 was 92.3 µM (inactive).

Q: What about the GI50 [6] of the same molecule?
A: Its GI50 is > 100 µM (inactive).

Q: What about the GI50 [47] of the same molecule?
A: Its GI50 is > 100 µM (inactive).

Q: What about the GI50 [48] of the same molecule?
A: Its GI50 is > 100 µM (inactive).

Q: What about the GI50 [49] of the same molecule?
A: Its GI50 is 53.1 µM (inactive).

Q: What about the GI50 [50] of the same molecule?
A: Its GI50 is > 100 µM (inactive).

Q: And the GI50 [7]?
A: Its GI50 is > 100 µM (inactive).

Q: What about the GI50 [8] of the same molecule?
A: Its GI50 is > 100 µM (inactive).

Q: What about the GI50 [9] of the same molecule?
A: Its GI50 is > 100 µM (inactive).

Q: What about the GI50 [10] of the same molecule?
A: Its GI50 is > 100 µM (inactive).

Q: And the GI50 [11]?
A: Its GI50 is > 100 µM (inactive).

Q: What about the GI50 [12] of the same molecule?
A: The GI50 was > 100 µM (inactive).

Q: What about the GI50 [14] of the same molecule?
A: The GI50 was > 100 µM (inactive).

Q: What about the GI50 [51] of the same molecule?
A: The GI50 was > 100 µM (inactive).

Q: And the GI50 [15]?
A: The GI50 was > 100 µM (inactive).

Q: What about the GI50 [16] of the same molecule?
A: Its GI50 is > 100 µM (inactive).

Q: What about the GI50 [18] of the same molecule?
A: Its GI50 is > 100 µM (inactive).

Q: What about the GI50 [19] of the same molecule?
A: The GI50 was > 100 µM (inactive).

Q: What about the GI50 [52] of the same molecule?
A: The GI50 was > 100 µM (inactive).

Q: And the GI50 [20]?
A: Its GI50 is > 100 µM (inactive).

Q: What about the GI50 [53] of the same molecule?
A: The GI50 was > 100 µM (inactive).

Q: What about the GI50 [54] of the same molecule?
A: Its GI50 is > 100 µM (inactive).

Q: And the GI50 [21]?
A: The GI50 was > 100 µM (inactive).

Q: And the GI50 [22]?
A: Its GI50 is > 100 µM (inactive).

Q: What about the GI50 [23] of the same molecule?
A: Its GI50 is > 10 µM (inactive).

Q: And the GI50 [55]?
A: Its GI50 is > 100 µM (inactive).

Q: And the GI50 [56]?
A: The GI50 was > 100 µM (inactive).

Q: And the GI50 [57]?
A: The GI50 was > 100 µM (inactive).

Q: What about the GI50 [24] of the same molecule?
A: The GI50 was > 100 µM (inactive).

Q: What about the GI50 [25] of the same molecule?
A: Its GI50 is > 100 µM (inactive).

Q: And the GI50 [26]?
A: Its GI50 is > 100 µM (inactive).

Q: What about the GI50 [58] of the same molecule?
A: Its GI50 is > 100 µM (inactive).

Q: What about the GI50 [27] of the same molecule?
A: The GI50 was > 100 µM (inactive).

Q: What about the GI50 [28] of the same molecule?
A: The GI50 was > 100 µM (inactive).

Q: And the GI50 [29]?
A: The GI50 was > 100 µM (inactive).

Q: What about the GI50 [30] of the same molecule?
A: The GI50 was > 100 µM (inactive).

Q: And the GI50 [31]?
A: Its GI50 is > 100 µM (inactive).

Q: And the GI50 [32]?
A: The GI50 was > 100 µM (inactive).

Q: And the GI50 [33]?
A: The GI50 was > 100 µM (inactive).

Q: And the GI50 [34]?
A: Its GI50 is > 10 µM (inactive).

Q: And the GI50 [36]?
A: Its GI50 is > 100 µM (inactive).

Q: And the GI50 [37]?
A: Its GI50 is > 100 µM (inactive).

Q: And the GI50 [38]?
A: Its GI50 is > 100 µM (inactive).

Q: What about the GI50 [39] of the same molecule?
A: The GI50 was > 100 µM (inactive).

Q: What about the GI50 [40] of the same molecule?
A: The GI50 was > 100 µM (inactive).
